# Measured values published in patent publication US4820715A, “Anti-emetic quinuclidinyl benzamides” (Bristol-Myers Company, priority 1987, dated 1989).
# What was measured:
# [1] = test system: field-stimulated guinea pig ileum; assay: Gastrokinetic Activity: contraction of field-stimulated guinea pig ileum preparations; parameters: species or system guinea pig (Hartley); settings: Cavia porcellus; for EC30: effective concentration30, read-out: EC30 (95% C.L.); for EC50: effective concentration50, read-out: EC50 (95% C.L.); for minimal effective concentration: read-out: Minimum Effective Concentration
# Description: This activity is considered to be correlated with gastrokinetic (prokinetic) activity in vivo, i.e. enhancement of gastric motility and gastric emptying.
# Normal, male guinea pigs (Hartley; Charles River) weighing […] are sacrificed by cervical dislocation. The terminal portion of the ileum was removed after discarding a 10 cm segment nearest to the ileocecal junction. The strips, 3-4 cm in length, were mounted in a 20 ml organ bath containing Krebs physiological buffer solution. The buffer was bubbled with 95% O2 -5% CO2 and kept at 37° C. The resting tension was adjusted to 1.0 g, and the tissues were equilibrated without stimulation for 15 minutes. For electrical stimulation, a platinum wire (cathode) was threaded up through the lumen and another platinum wire (anode) was attached to the glass rod that suspended the muscle. Tissues were stimulated coaxially at 1.5 times the voltage necessary to produce maximum twitch height, with single pulses, 0.5 msec in duration, delivered once every 10 seconds. After the 15 minute equilibration period (without stimulation), the stimulator (Grass S88 Stimulator) was turned on and the tissues were allowed to stabilize for approximately 1 hour, or until the twitch height remained constant, with washes every 20 minutes.
# [2] = test system: Apomorphine-Induced Emesis; assay: Antagonism of Apomorphine-Induced Emesis in Dogs; assay type: in vivo, beagle dogs; settings: Canis lupus familiaris, sc; s.c. 30 minutes prior to apomorphine 0.3 mg/kg; dog; read-out: Antagonism of Apomorphine-Induced Emesis in the Dog ED50
# Description: Unfasted beagle dogs of both sexes were used as test subjects. Test compounds and apomorphine were each administered subcutaneously as aqueous solutions, with the test compound being administered 30 minutes prior to the administration of the apormorphine.
# Apomorphine was administered at a dose of 0.3 mg/kg. […] All tests were run in at least two dogs.
# [3] = test system: Cisplatin-Induced Emesis; assay: Antagonism of Cisplatin-Induced Emesis in the Ferret; assay type: in vivo, Fitch ferrets; settings: Mustela putorius, iv, 4 h; 3 mg/kg, i.v. × 2; read-out: Antagonism of Cisplatin-Induced Emesis in the Ferret, % Protection
# Description: The ventral and dorsal area of the neck is shaved and a 3 cm incision is made. The left jugular vein is exposed and ligated with a silk suture at the cephalic end. The indwelling catheter is constructed of Silastic tubing 18 cm in length (0.020 inch I.D.×0.037 inch O.D.) with a 2 cm polyethylene sleeve (0.045 inch I.D.×0.062 inch O.D.) filled with heparin (1000 units/ml) and sealed at the exposed end with a 23 gauge×1 inch needle crimped at both ends. A small cut is made in the jugular and the catheter inserted, allowing the free end to be delivered through a 13 gauge×5 cm trochar under the skin and attached to the nape of the neck with a silk suture. The ferrets are housed in individual cages and allowed 2-4 days recovery before testing. On the test day, the test compounds were administered i.v. […] The cisplatin solution was prepared by adding 70° C. physiological saline, stirring and sonicating until dissolved. The resulting solution (4 mg/ml) was maintained at 40° C. and administered i.v. ([…]) via the catheter. Following administration of cisplatin, the ferrets were observed continuously for four hours and emetic episodes recorded. Two or more emetic episodes within a one-minutes period was considered as a single episode. The ferrets were euthanized with T-61 i.v. at the termination of the experiment, and proper placement of the catheter was verified.
# [4] = target: dopaminergic (D2) receptors (Rattus norvegicus, UniProt P61169); assay: biochemical; assay type: binding; settings: striatal rat brain homogenates, ^3H-spiperone, 37° C., 15 minutes; read-out: 3H-Spiperone Displacement IC50
# Sequence of dopaminergic (D2) receptors (P61169 whole entry): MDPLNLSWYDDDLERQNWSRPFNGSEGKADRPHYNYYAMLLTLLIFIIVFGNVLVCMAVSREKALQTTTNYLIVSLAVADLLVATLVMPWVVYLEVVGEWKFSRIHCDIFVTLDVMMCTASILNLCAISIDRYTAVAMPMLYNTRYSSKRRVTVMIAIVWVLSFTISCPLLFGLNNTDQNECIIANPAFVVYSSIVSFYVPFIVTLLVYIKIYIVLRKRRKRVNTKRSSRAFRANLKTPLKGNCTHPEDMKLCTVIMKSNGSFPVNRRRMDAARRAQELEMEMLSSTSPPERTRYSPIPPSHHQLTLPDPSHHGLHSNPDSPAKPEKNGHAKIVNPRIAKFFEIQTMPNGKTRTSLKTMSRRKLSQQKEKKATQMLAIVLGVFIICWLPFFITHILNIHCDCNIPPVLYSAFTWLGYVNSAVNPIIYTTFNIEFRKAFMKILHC
# Description: Rats (150±10 g; Charles River) were decapitated, the corpus striatum dissected out and frozen on dry ice. The tissues were pooled and stored at -80° C. until used. Homogenates (Brinkmann Polytron) of the corpus striatum in cold HEPES.KOH buffer (final pH=7.4) were centrifuged at 39,000×G. The supernatant was discarded and the pellets were re-suspended in HEPES.KOH buffer and re-centrifuged as above.
# Tests to determine the Inhibitory Concentration50 (IC50) of the compounds of Formula I and reference compounds versus ^3 H-spiperone were conducted as follows. Tubes containing either 100 μL of buffer mixture (for total binding), 100 μL of buffer mixture plus 100 μL of 10^-4 M D(+)-butaclamol (for blanks, i.e. non-specific binding), or 100 μL of buffer mixture containing 10^-7, 10^-6 or 10^-5 M test compound were prepared. To each were added 100 μL of a solution of ^3 H-spiperone (New England Nuclear) in buffer mixture (2000 c.p.m. in the incubation mixture) and 800 μL of the striatal tissue suspension. The tubes were then diluted to 1 mL with buffer mixture, giving a final concentration of 10^-8, 10^-7 or 10^-6 M test compound and approximately 100 pM ^3 H-spiperone. The samples were incubated at 37° C. for 15 minutes, filtered in vacuo on glass fiber filters and counted by liquid scintillation spectrometry. […] All samples were run in duplicate.
# [5] = read-out: Average % Maximum Increase
SMILES,"activation at 100 µM ([1]; at 100 μM, read-out: Average % Maximum Increase) [%]",EC30 [1] [nM],EC50 [1] [nM],minimal effective concentration [1] [µM],ED50 [2] [mg/kg],inhibition in vivo at 3 mg/kg [3] [%],IC50 [4] [nM],"activation at 30 µM [1, 5] [%]","activation at 10 µM [1, 5] [%]","activation at 300 µM ([1]; at 300 μM, read-out: Average % Maximum Increase) [%]"
"CCN(CC)CCNC(=O)c1cc(Cl)c(N)cc1OCC(N)=O [Example 16, 4-Amino-2-(2-amino-2-oxoethoxy)-5-chloro-N-[2-(diethylamino)ethyl]benzamideAcetate Monohydrate]",72,500,3700,0.03,> 3,21,> 1000,–,–,–
"CCN(CC)CCNC(=O)c1cc(Cl)c(N)cc1OCC[S+](C)[O-] (stereo not shown) [Example 21, 4-Amino-5-chloro-N-[2-(diethylamino)ethyl]-2-[2-(methylsulfinyl)ethoxy]benzamide]",–,570,2300,0.1,> 3,49,> 1000,88,–,–
"CCN(CC)CCNC(=O)c1cc(Cl)c(N)cc1OCC(=O)NN.O.O.O [Example 36, 4-Amino-5-chloro-N-[2-(diethylamino)ethyl]-2-(2-hydrazino-2-oxoethoxy)benzamide Trihydrate]",–,500,4600,0.1,> 3,86,> 1000,–,55,–
"CCN(CC)CCNC(=O)c1cc(Cl)c(N)cc1OCC(=O)NNC(C)=O [Example 37, 4-Amino-5-chloro-N-[2-(diethylamino)ethyl]-2-[2-(2-acetylhydrazino)-2-oxoethoxy]benzamide Acetate]",–,720,6600,–,> 3,57,> 1000,–,–,83
CCN(CC)CCNC(=O)c1cc(Cl)c(N)cc1OCC(=O)NC [Example 40],–,900,5500,0.1,> 3,62,> 1000,–,56,–
CCN(CC)CCNC(=O)c1cc(Cl)c(N)cc1OCCNC(C)=O [Example 48],–,2300,13000,0.1,> 3,47,> 1000,–,47,–
"CCN(CC)CCNC(=O)c1cc(Cl)c(N)cc1OCCC[S+](C)[O-] (stereo not shown) [Example 50, 4-Amino-5-chloro-N-[2-(diethylamino)ethyl]-2-[3-(methylsulfinyl)propoxy]benzamide]",–,12000,39000,1,> 3,62,> 1000,45,–,–
"CCN(CC)CCNC(=O)c1cc(Cl)c(N)cc1OCCCC(=O)N(CC)CC [Example 56, 4-Amino-5-chloro-N-[2-(diethylamino)ethyl]-2-(4-diethylamino-4-oxobutoxy)benzamide]",–,1100,7300,0.1,> 3,81,> 1000,59,–,–
"CCN(CC)CCNC(=O)c1cc(Cl)c(N)cc1OCCOC(C)=O [Example 57, 2-(2-Acetoxyethoxy)-4-amino-5-chloro-N-[2-(diethylamino)ethyl]-benzamide]",–,–,–,–,> 3,66,> 1000,–,–,–
CCN(CC)CCNC(=O)c1cc(Cl)c(N)cc1OCCCC[S+](C)[O-] (stereo not shown) [Example 58],–,1500,5600,0.3,> 3,66,> 1000,72,–,–
"CCN(CC)CCNC(=O)c1cc(Cl)c(N)cc1OCC(=O)N1CCCC1 [Example 59, 4-Amino-5-chloro-N-[2-(diethylamino)ethyl]-2-[2-(1-pyrrolidinyl)-2-oxoethoxy]benzamide]",–,5200,20000,1,> 3,66,> 1000,–,38,–
CCN(CC)CCNC(=O)c1cc(Cl)c(N)cc1OCC[S+]([O-])CC (stereo not shown) [Example 60],–,880,4800,0.1,> 3,52,> 1000,66,–,–
